Assay results taken from US20240252506A1 (Hoffmann-La Roche Inc., priority 2021, published 2024).
In brackets after ≈: the same amount, converted by molar mass.

System: Escherichia coli ATCC 25922
Assay: Minimal Inhibitory Concentration (MIC) determination, broth microdilution (CLSI M07-A10)
Assay type: cell-based
Conditions: Escherichia coli, ATCC25922, strain Escherichia coli ATCC 25922, 18-24 hours at 35±2° C., lowest concentration for complete growth inhibition (no visible growth), read-out: Escherichia coli growth inhibition MIC
Method in brief: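 Broth microdilution per CLSI M07-A10; compounds in 2-fold serial dilutions; inoculum from 0.5 McFarland suspension diluted 1:200 in broth. Incubated 18-24 h at 35±2° C in ambient air; MIC (μg/mL) taken as lowest concentration giving no visible growth.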

SMILES | MIC [µg/mL]
O=C1COc2ccc(N3CC4(CCN(CC5Cc6cc7nc([C@@H]8C[C@@H](O)CN8)oc7c(F)c6C5)CC4)OC3=O)nc2N1 (stereo partly drawn) [Example 147, 6-[8-[[8-Fluoro-2-[(2S,4R)-4-hydroxypyrrolidin-2-yl]-6,7-dihydro-5H-cyclopenta[f][1,3]benzoxazol-6-yl]methyl]-2-oxo-1-oxa-3,8-diazaspiro[4.5]decan-3-yl]-4H-pyrido[3,2-b][1,4]oxazin-3-one] | 0.5 (≈ 0.864 µM)
O=C1COc2ncc(N3CC4(CCN(CC5Cc6c(c(F)c7[nH]c(CN8CCS(=O)(=O)CC8)nc7c6F)C5)CC4)OC3=O)nc2N1 [Example 5, 6-[8-[[2-[(1,1-dioxo-1,4-thiazinan-4-yl)methyl]-4,8-difluoro-3,5,6,7-tetrahydrocyclopenta[f]benzimidazol-6-yl]methyl]-2-oxo-1-oxa-3,8-diazaspiro[4.5]decan-3-yl]-4H-pyrazino[2,3-b][1,4]oxazin-3-one] | 2 (≈ 3.04 µM)
CNCC(=O)NCCn1nnc2c(F)c3c(c(F)c21)CC(CN1CCC2(CC1)CN(c1cnc4c(n1)NC(=O)CO4)C(=O)O2)C3 (centres unmarked) [Example 61, N-[2-[4,8-Difluoro-6-[[2-oxo-3-(3-oxo-4H-pyrazino[2,3-b][1,4]oxazin-6-yl)-1-oxa-3,8-diazaspiro[4.5]decan-8-yl]methyl]-6,7-dihydro-5H-cyclopenta[f]benzotriazol-1-yl]ethyl]-2-(methylamino)acetamide] | 0.5 (≈ 0.798 µM)
CN[C@H](CO)Cc1nc2c(F)c3c(c(F)c2[nH]1)CC(CN1CCC2(CC1)CN(c1cnc4c(n1)NC(=O)CO4)C(=O)O2)C3 [Example 57, 6-[8-[[4,8-difluoro-2-[(2S)-3-hydroxy-2-(methylamino)propyl]-3,5,6,7-tetrahydrocyclopenta[f]benzimidazol-6-yl]methyl]-2-oxo-1-oxa-3,8-diazaspiro[4.5]decan-3-yl]-4H-pyrazino[2,3-b][1,4]oxazin-3-one] | 0.5 (≈ 0.835 µM)
CN(C)Cc1nc2c(F)c3c(c(F)c2[nH]1)CC(CNCCC1CN(c2cnc4c(n2)NC(=O)CO4)C(=O)O1)C3 (centres unmarked) [Example 2, 6-[5-[2-[[2-[(dimethylamino)methyl]-4,8-difluoro-3,5,6,7-tetrahydrocyclopenta[f]benzimidazol-6-yl]methylamino]ethyl]-2-oxo-oxazolidin-3-yl]-4H-pyrazino[2,3-b][1,4]oxazin-3-one] | 0.5 (≈ 0.922 µM)
O=C1COc2ncc(N3CC4(CCN(CC5Cc6c(c(F)c7[nH]c(C89CC(CN8)C9)nc7c6F)C5)CC4)OC3=O)nc2N1 [Example 34, 6-[8-[[2-(2-azabicyclo[2.1.1]hexan-1-yl)-4,8-difluoro-3,5,6,7-tetrahydrocyclopenta[f]benzimidazol-6-yl]methyl]-2-oxo-1-oxa-3,8-diazaspiro[4.5]decan-3-yl]-4H-pyrazino[2,3-b][1,4]oxazin-3-one] | 0.25 (≈ 0.422 µM)
CN1C[C@H](O)C[C@H]1c1nc2c(F)c3c(c(F)c2[nH]1)CC(CN1CCC2(CC1)CN(c1cnc4c(n1)NC(=O)CO4)C(=O)O2)C3 [Example 58, 6-[8-[[4,8-Difluoro-2-[(2S,4R)-4-hydroxy-1-methyl-pyrrolidin-2-yl]-3,5,6,7-tetrahydrocyclopenta[f]benzimidazol-6-yl]methyl]-2-oxo-1-oxa-3,8-diazaspiro[4.5]decan-3-yl]-4H-pyrazino[2,3-b][1,4]oxazin-3-one] | 1 (≈ 1.64 µM)
O=C(O)C(F)(F)F.O=C1COc2ncc(N3CC4(CCN(CC5Cc6cc7nc(CNC(=O)[C@H]8CCCN8)[nH]c7c(F)c6C5)CC4)OC3=O)nc2N1 (stereo partly drawn) [Example 161, (2R)-N-[[8-fluoro-6-[[2-oxo-3-(3-oxo-4H-pyrazino[2,3-b][1,4]oxazin-6-yl)-1-oxa-3,8-diazaspiro[4.5]decan-8-yl]methyl]-1,5,6,7-tetrahydrocyclopenta[f]benzimidazol-2-yl]methyl]pyrrolidine-2-carboxamide; 2,2,2-trifluoroacetic acid] | 0.25
O=C1COc2ncc(N3CC4(CCN(CC5Cc6cc7nc([C@H]8CCN8)oc7c(F)c6C5)CC4)OC3=O)nc2N1 (single isomer, unassigned) [Example 108] | 0.25 (≈ 0.455 µM)
O=C1COc2ncc(N3CC4(CCN(CC5Cc6cc7nc(C8CNC8)oc7c(F)c6C5)CC4)OC3=O)nc2N1 (single isomer, unassigned) [Example 100, 6-[2-oxo-8-[[2-(azetidin-3-yl)-8-fluoro-6,7-dihydro-5H-cyclopenta[f][1,3]benzoxazol-6-yl]methyl]-1-oxa-3,8-diazaspiro[4.5]decan-3-yl]-4H-pyrazino[2,3-b][1,4]oxazin-3-one] | 0.125 (≈ 0.227 µM)
O=C1COc2ncc(N3CC4(CCN(CC5Cc6cc7nnn(C8CNC8)c7c(F)c6C5)CC4)OC3=O)nc2N1.O=CO (single isomer, unassigned) [Example 114] | 0.25

Continued, values first:

MIC [µg/mL] | SMILES
0.125 (≈ 0.219 µM) | CNCCn1nnc2c(F)c3c(c(F)c21)CC(CN1CCC2(CC1)CN(c1cnc4c(n1)NC(=O)CO4)C(=O)O2)C3 (single isomer, unassigned) [Example 118, 6-[2-oxo-8-[[4,8-difluoro-1-[2-(methylamino)ethyl]-6,7-dihydro-5H-cyclopenta[f]benzotriazol-6-yl]methyl]-1-oxa-3,8-diazaspiro[4.5]decan-3-yl]-4H-pyrazino[2,3-b][1,4]oxazin-3-one]
0.125 (≈ 0.233 µM) | CNCc1nc2c3c(c(F)cc2o1)CC(CN1CCC2(CC1)CN(c1cnc4c(n1)NC(=O)CO4)C(=O)O2)C3 (centres unmarked) [Example 96, 6-[8-[[5-fluoro-2-(methylaminomethyl)-7,8-dihydro-6H-cyclopenta[e][1,3]benzoxazol-7-yl]methyl]-2-oxo-1-oxa-3,8-diazaspiro[4.5]decan-3-yl]-4H-pyrazino[2,3-b][1,4]oxazin-3-one]
0.25 (≈ 0.428 µM) | CN(C)CCn1nnc2c(F)c3c(c(F)c21)CC(CN1CCC2(CC1)CN(c1cnc4c(n1)NC(=O)CO4)C(=O)O2)C3 (centres unmarked) [Example 64, 6-[8-[[1-[2-(Dimethylamino)ethyl]-4,8-difluoro-6,7-dihydro-5H-cyclopenta[f]benzotriazol-6-yl]methyl]-2-oxo-1-oxa-3,8-diazaspiro[4.5]decan-3-yl]-4H-pyrazino[2,3-b][1,4]oxazin-3-one]
0.25 (≈ 0.399 µM) | CNCC(=O)NCCn1nc2c(F)c3c(c(F)c2n1)CC(CN1CCC2(CC1)CN(c1cnc4c(n1)NC(=O)CO4)C(=O)O2)C3 [Example 159, N-[2-[4,8-difluoro-6-[[2-oxo-3-(3-oxo-4H-pyrazino[2,3-b][1,4]oxazin-6-yl)-1-oxa-3,8-diazaspiro[4.5]decan-8-yl]methyl]-6,7-dihydro-5H-cyclopenta[f]benzotriazol-2-yl]ethyl]-2-(methylamino)acetamide]
0.125 (≈ 0.227 µM) | O=C1COc2ncc(N3CC4(CCN(CC5Cc6cc7nc([C@@H]8CCN8)oc7c(F)c6C5)CC4)OC3=O)nc2N1 (single isomer, unassigned) [Example 106]

Same assay, conditions: strain Escherichia coli ATCC 25922, 18-24 hours at 35±2° C., lowest concentration for complete growth inhibition (no visible growth)

SMILES | Escherichia coli growth inhibition MIC [µg/mL]
CNCc1nc2cc3c(c(F)c2o1)CC(CN1CCC2(CC1)CN(c1ccc4c(n1)NC(=O)CO4)C(=O)O2)C3 (single isomer, unassigned) [Example 137, 6-[8-[[8-Fluoro-2-(methylaminomethyl)-6,7-dihydro-5H-cyclopenta[f][1,3]benzoxazol-6-yl]methyl]-2-oxo-1-oxa-3,8-diazaspiro[4.5]decan-3-yl]-4H-pyrido[3,2-b][1,4]oxazin-3-one] | 0.5
O=C1COc2ccc(N3CC4(CCN(CC5Cc6cc7nc([C@@H]8C[C@@H](O)CN8)oc7c(F)c6C5)CC4)OC3=O)nc2N1 (stereo partly drawn) [Example 148, 6-[8-[[8-Fluoro-2-[(2S,4R)-4-hydroxypyrrolidin-2-yl]-6,7-dihydro-5H-cyclopenta[f][1,3]benzoxazol-6-yl]methyl]-2-oxo-1-oxa-3,8-diazaspiro[4.5]decan-3-yl]-4H-pyrido[3,2-b][1,4]oxazin-3-one] | 1

Second part, the compound after the results:

Escherichia coli growth inhibition MIC [µg/mL] | SMILES
0.5 | CN[C@@H](CO)c1nc2cc3c(c(F)c2o1)CC(CN1CCC2(CC1)CN(c1cnc4c(n1)NC(=O)CO4)C(=O)O2)C3 (stereo partly drawn) [Example 146, 6-[8-[[8-Fluoro-2-[(1S)-2-hydroxy-1-(methylamino)ethyl]-6,7-dihydro-5H-cyclopenta[f][1,3]benzoxazol-6-yl]methyl]-2-oxo-1-oxa-3,8-diazaspiro[4.5]decan-3-yl]-4H-pyrazino[2,3-b][1,4]oxazin-3-one]
0.25 | NCc1nc2cc3c(c(F)c2o1)CC(CN1CCC2(CC1)CN(c1cnc4c(n1)NC(=O)CO4)C(=O)O2)C3 (single isomer, unassigned) [Example 105, 6-[2-oxo-8-[[2-(aminomethyl)-8-fluoro-6,7-dihydro-5H-cyclopenta[f][1,3]benzoxazol-6-yl]methyl]-1-oxa-3,8-diazaspiro[4.5]decan-3-yl]-4H-pyrazino[2,3-b][1,4]oxazin-3-one]
≤0.06 | C[C@H](N)Cn1nc2cc(F)c3c(c2n1)CC(CN1CCC2(CC1)CN(c1cnc4c(n1)NC(=O)CO4)C(=O)O2)C3 (single isomer, unassigned) [Example 88]
≤0.06 | NCCn1nnc2cc3c(c(F)c21)CC(CN1CCC2(CC1)CN(c1cnc4c(n1)NC(=O)CO4)C(=O)O2)C3 (single isomer, unassigned) [Example 81, 6-[2-oxo-8-[[1-(2-aminoethyl)-8-fluoro-6,7-dihydro-5H-cyclopenta[f]benzotriazol-6-yl]methyl]-1-oxa-3,8-diazaspiro[4.5]decan-3-yl]-4H-pyrazino[2,3-b][1,4]oxazin-3-one]
≤0.06 | NCCc1nc2cc3c(c(F)c2o1)CC(CN1CCC2(CC1)CN(c1cnc4c(n1)NC(=O)CO4)C(=O)O2)C3 (single isomer, unassigned) [Example 103, 6-[8-[[2-(2-aminoethyl)-8-fluoro-6,7-dihydro-5H-cyclopenta[f][1,3]benzoxazol-6-yl]methyl]-2-oxo-1-oxa-3,8-diazaspiro[4.5]decan-3-yl]-4H-pyrazino[2,3-b][1,4]oxazin-3-one]
